The values below come from a melting point compilation (Tetko et al.; mined from patent text by program, amines drawn as free bases though some values may be those of a salt).

The structures appear in SMILES notation.

In general, melting point refers to the temperature, or range, at which the solid turns liquid. Regarding `CCCN(CCCNc1ncc(Cc2ccc3c(c2)OCO3)c(=O)[nH]1)c1ccccn1`, the melting point was 86 to 92 °C.
In turn, `N#Cc1ccc(-c2cnc(F)c(OC3SCC(O)C(O)C3O)c2)cc1` (stereo unspecified) returned a melting point of 220 °C.
With `CC(=CCP(=O)(O)O)C(N)C(=O)O` (stereo unspecified) the figure was 168 °C; with `CN(C)c1ncnc2c(-c3ccncc3)cnn12`, 184 to 185 °C; with `Cc1oc(-c2ccc(-c3ccccc3)cc2)nc1CCOc1ccc(OC(C)(C)C(=O)O)cc1`, 123 to 124 °C.
With `COc1ccccc1NC(=O)c1sccc1S(=O)(=O)Nc1onc(C)c1Br` the figure was 74 to 80 °C.
Under `N#Cc1ccc(-c2ccc(O)c(C(=O)O)c2)cc1` stands 227 °C; under `N#CC=C1CCN(c2ccc(N3C[C@@H](Cn4cc(CCC(=O)O)nn4)OC3=O)cc2)CC1`, 120 to 122 °C; under `CN(C)Cc1cc(C(=O)c2ccc(F)cc2)cc(C(C)(C)C)c1O`, 112 to 113 °C.
Regarding `Cc1ccc(CC(N)=O)c(C)c1OC(F)F`, the melting point lay within 136 to 137 °C.
Under `CCn1nc2c(N)nc3ccccc3c2c1CC1(F)CCN(C(C)=O)CC1` stands 228 to 230 °C.
With `N#Cc1ccc(N2CCN(CC(=O)O)CC2=O)cc1` the figure was 120 °C.
As for `CSc1ccc(C(CC2CCCO2)C(=O)O)cc1` (stereo unspecified), the melting point is 105 to 107 °C.
With `CCOP(=O)(OCC)c1ccc2c(c1)[C@@H](n1ccccc1=O)[C@H](O)C(C)(C)O2` (relative stereo) the figure was 130 °C.
With `O=S(=O)(Nc1ccc2c(OCc3csc(-c4ccccc4Cl)n3)cccc2c1)C(F)(F)F` the figure was 128 to 129 °C; with `CCOC(=O)C1COc2cc(OC(C)=O)ccc2O1` (stereo unspecified), 66 °C; with `COc1ccc(CCCC2(Br)C(=O)NC(=O)NC2=O)cc1`, 113 to 114 °C.
With `CS(=O)(=O)c1ccc(-n2cc(C(F)F)nc2-c2ccc(Cl)cc2)cc1` the figure was 179 to 180 °C.
`CCC(CC)COc1cccc2nc(C)c(C(=O)O)c(N)c12` registered a melting point of 145 to 151 °C.
With `CC(CCCC(C)(C)O)C1CCC2C3=CC=C4CC(O)CCC4(C)C3CCC21C` (stereo unspecified) the figure was 122 to 125 °C.
With `O=c1[nH]c(-c2ccccn2)c(I)c(=O)n1-c1ccc(OC(F)(F)F)cc1` the figure was 215 to 217 °C; with `Cc1nc(N2CCN(Cc3ccccc3)CC2)ncc1C(N)=O`, 195 to 196 °C.
Under `O=C1OC2(CC(c3ccc(F)cc3)=NO2)c2ccccc21` (stereo unspecified) stands 142 to 145 °C; under `CC1CCCN1c1ccccc1NC(N)=S` (stereo unspecified), 145 to 148 °C; under `COc1cccc(CC(=O)O)c1OCc1cc(OCc2ccc3ccccc3n2)nn1C(C)C`, 163 to 164 °C.
`O=c1cc(C(F)(F)F)[nH]n1-c1cccc([N+](=O)[O-])c1`: the melting point was found to be 166 °C.
In turn, `O=C1CC(NCc2ccccc2)C(=O)N1Cc1ccccc1` (stereo unspecified) displayed a melting point of 60 to 63 °C.
With `O=C(CCc1ccccc1)Nc1ccc(CN2C(=O)[C@H]3CCC[C@H]3N(C(=O)CN3C(=O)c4ccccc4C3=O)c3ccccc32)cc1` (relative stereo) the figure was 222 °C; with `C=C(CC)C(=O)c1ccc(OCC(=O)O)c(Cl)c1`, 83.5 to 85.5 °C.
The molecule `N#Cc1cc(F)cc2c1OCCC21SC(=O)NC1=O` (stereo unspecified) came in with a melting point of 230 to 232 °C.
With `OC[C@H](O)[C@H](O)COc1nc(N2CCNCC2)nc2ccccc12` (racemic) the figure was 168 to 172 °C; with `Cc1cc2c(cc1Br)C(O)CC(C)(C)O2` (stereo unspecified), 92 to 93 °C; with `FC(F)Oc1ccc(CN(C(=Nc2ccccc2)N(Cc2ccc(OC(F)F)cc2)C2CCCC2)C2CCCC2)cc1`, 86.5 to 88 °C.
Under `O=C(O)CCCCc1nc(NCc2ccc3c(c2)OCO3)c2cc(Cl)sc2n1` stands 130 °C; under `COc1nc(C)cnc1N`, 75 to 76.5 °C.
With `O=C(NC1CCCC1)c1ccc2nonc2c1` the figure was 169 to 170 °C.
